Measurements taken from US20250340519A1, “RADIOLABELLED COMPOUND” (OXFORD UNIVERSITY INNOVATION LIMITED, priority 2018, published 2025).

Legend:
[1] = test system: PANC-1 cells; experiment: Cell uptake of [18F]olaparib in PANC-1 cells; format: cell-based, human; conditions: excess of unlabelled inhibitor
Procedure: PARP1 levels in a limited selection of PDAC cell lines were determined using Western blot and confirmed by immunofluorescence microscopy. […] Uptake was reported as a percentage of the total amount added, per mg of total protein recovered from the isolated cells, determined by BCA assay. Specificity of uptake was determined by blocking olaparib binding sites using an excess of cold, unlabeled olaparib, or other PARP inhibitors (rucaparib, talazoparib).
Cell uptake of ^18F-olaparib in Panc-1, MiaPaCa-2 and Capan-1 cells was determined as previously described (Cornelissen, B., Hu, M., McLarty, K., Costantini, D. & Reilly, R. M.
Cellular penetration and nuclear importation properties of 111In-labeled and 123I-labeled HIV-1 tat peptide immunoconjugates in BT-474 human breast cancer cells. Nucl Med Biol 34, 37-46, 2007; Thurber, G. M., Reiner, T., Yang, K. S., Kohler, R. H. & Weissleder, R. Effect of small-molecule modification on single-cell pharmacokinetics of PARP inhibitors. Molecular cancer therapeutics 13, 986-995, 2014; Reiner, T., et al. Imaging therapeutic PARP inhibition in vivo through bioorthogonally developed companion imaging agents. Neoplasia 14, 169-177, 2012). Aliquots of Panc-1, MiaPaca-2, and Capan-1 cells (1.5×10^5 cells/well) were seeded in 24-well plates in warm cell culture medium (500 μL) and the cells were allowed to adhere overnight. Cells were irradiated (10 Gy; dose rate 0.8 Gy/min) or sham-irradiated and then returned to an incubator (37° C., 5% CO2) for 2 h. […] In the blocking groups, non-radioactive olaparib, talazoparib, or rucaparib were also added in increasing concentrations (10 pM-10 μM. After 30 or 60 minutes, the cell culture medium was removed and combined with two washes (500 μL) of cell culture medium. The remaining monolayer of cells was then lysed with 0.1 M sodium hydroxide for 20 minutes at room temperature. The amount of radioactivity contained within the cell culture medium and the cell lysate fractions was measured using a gamma counter. Protein levels from parallel plates were quantified using a Pierce BCA protein assay kit (Thermo Scientific) according to the manufacturer's recommendations and bovine serum albumin was used as the protein standard. Cell uptake levels of [^18F]-olaparib were normalised to percent of the total added radioactivity per milligram protein. […] IC50 values were calculated using GraphPad Prism software (GraphPad Software, San Diego, CA, USA). […]
Aliquots of Panc-1, MiaPaca-2, and Capan-1 cells (7.5×10^4 cells/well) were seeded in 24-well plates in warm cell culture medium (500 μL). […] The amount of radioactivity contained within the cell culture medium and the cell lysate fractions was measured using a gamma counter. […]

[2] = female mice, intravenous bolus 20 mg/kg; cited from earlier work
[3] = test system: U87MG and U251MG cells; experiment: Blocking of 18F-olaparib uptake in U87MG and U251MG cells; format: cell-based; conditions: 100 μM cold olaparib vs 1 μM ^18F-olaparib
Procedure: Olaparib (1) was used at various concentrations to block 1 μM of the radiolabelled isotopologue, ^18F-olparib (compound 3); see FIG. 26.

[4] = test system: U87MG and U251MG xenografts; experiment: 18F-olaparib biodistribution in U87MG and U251MG tumour xenograft mouse models; format: in vivo, Balb/c nude mice; conditions: 20 μg cold olaparib prior to 1 μg ^18F-olaparib, tail vein
Procedure: U87MG and U251MG xenografts were generated in Balb/c nude mice. The xenograft models were administered various doses (0.5, 1.0, 4.0, and 8.0 μg) of ^18F-olaparib by tail vein injection. At 60-120 min post-injection, mice were sacrificed and organs were collected for biodistribution; see FIGS. 27(a) and (b), and FIG. 28(a). […] We predicted that the uptake for the U251MG xenografts would be greater, but in vivo there is no significant difference between the % ID/g for the U251MG or U87MG xenograft tumours.
A 20-fold excess of cold olaparib was injected via tail vein 60 m prior to 1 μg of ^18F-olaparib via tail vein. The mice were sacrificed at 60-120 min post-injection and organs were harvested.

| SMILES | blocking of [^18F]olaparib uptake by excess PARP inhibitor [1] | previously reported half-life [2] | blocking of ^18F-olaparib uptake in vitro [3] | blocking of ^18F-olaparib tumour uptake in vivo [4] |
| --- | --- | --- | --- | --- |
| Cn1ncnc1[C@H]1c2n[nH]c(=O)c3cc(F)cc(c23)N[C@@H]1c1ccc(F)cc1 [talazoparib] | could be blocked |  |  |  |
| O=C(c1cc(Cc2n[nH]c(=O)c3ccccc23)ccc1F)N1CCN(C(=O)C2CC2)CC1 [Compound 1, 4-(3-(4-(cyclopropanecabonyl)piperazine-1-carbnonyl)-4-fluorobenzyl)phthalazin-1(2H)-one] | could be blocked | 58 min | ~70% | ~75% |
| CNCc1ccc(-c2[nH]c3cc(F)cc4c3c2CCNC4=O)cc1 [rucaparib] | could be blocked |  |  |  |
